What was measured:
Format in all cases: in vivo
[1] = tested on: horseweed (Conyza canadensis(L.) Cron.); assay: Example 1 pot test, foliar treatment of horseweed, visual growth inhibition; conditions: 21st day after foliar treatment
Description: (§1) Upland field soil was put into a 1/1,000,000 hectare pot, and seeds of horseweed (Conyza canadensis(L.) Cron.) were sown.

[2] = tested on: horseweed (Conyza canadensis(L.) Cron.); assay: Example 2 pot test, foliar treatment of horseweed, visual growth inhibition; conditions: 19th day after foliar treatment
Description: as §1

[3] = tested on: horseweed (Conyza canadensis(L.) Cron.); assay: Example 3 pot test, foliar treatment of horseweed, growth inhibition over time; conditions: for growth inhibition effect (in words): used alone, 19th day after the foliar treatment
Description: as §1

[4] = tested on: black nightshade (Solanum nigrum L.); assay: Example 4 pot test, foliar treatment, black nightshade
Description: (§2) Upland field soil was put into a 1/1,000,000 hectare pot, and seeds of black nightshade (Solanum nigrum L.), wild oat (Avena fatua L.) and dandelion (Taraxacum officinale) were sown.

[5] = tested on: dandelion (Taraxacum officinale); assay: Example 4 pot test, foliar treatment, dandelion
Description: as §2

[6] = tested on: yellow nutsedge (Cyperus esculentus L.); assay: Example 5 pot test, foliar treatment, yellow nutsedge; conditions: 22nd day after foliar treatment
Description: Upland field soil was put into a 1/1,000,000 hectare pot, and tubers of yellow nutsedge (Cyperus esculentus L.) were embedded.

[7] = tested on: common ragweed (Ambrosia elatior L.); assay: Example 6 pot test, foliar treatment, common ragweed
Description: (§3) Upland field soil was put into a 1/1,000,000 hectare pot, and seeds of common ragweed (Ambrosia elatior L.) and Kochia (Kochia scoparia L.) were sown.

[8] = tested on: Kochia (Kochia scoparia L.); assay: Example 6 pot test, foliar treatment, Kochia
Description: as §3

[9] = tested on: barnyardgrass (Echinochloa crus-galli L.); assay: Example 8 pot test, foliar treatment, barnyardgrass
Description: (§4) Upland field soil was put into a 1/1,000,000 hectare pot, and seeds of goosegrass (Eleusine indica L.), barnyardgrass (Echinochloa crus-galli L.), giant foxtail (Setaria faberi Herrm.) and crabgrass (Digitaria sanguinalis L.) were sown.

[10] = tested on: giant foxtail (Setaria faberi Herrm.); assay: Example 8 pot test, foliar treatment, giant foxtail
Description: as §4

[11] = tested on: crabgrass (Digitaria sanguinalis L.); assay: Example 8 pot test, foliar treatment, crabgrass
Description: as §4

[12] = tested on: redroot pigweed (Amaranthus retroflexus L.); assay: Example 9 pot test, foliar treatment, redroot pigweed
Description: (§5) Upland field soil was put into a 1/1,000,000 hectare pot, and seeds of redroot pigweed (Amaranthus retroflexus L.), Kochia (Kochia scoparia L.) and Chenopodium album L. var. centrorubrum Makino were sown.

[13] = tested on: Kochia (Kochia scoparia L.); assay: Example 9 pot test, foliar treatment, Kochia
Description: as §5

[14] = tested on: Chenopodium album L. var. centrorubrum Makino; assay: Example 9 pot test, foliar treatment, Chenopodium album var. centrorubrum
Description: as §5

[15] = tested on: wild oat (Avena fatua L.); assay: Example 4 pot test, foliar treatment, wild oat
Description: as §2

[16] = tested on: goosegrass (Eleusine indica L.); assay: Example 8 pot test, foliar treatment, goosegrass
Description: as §4

SMILES: COC(=O)CCNC(=O)C(C)Sc1cc(-n2c(=O)cc(C(F)(F)F)n(C)c2=O)c(F)cc1Cl (stereo not drawn) [Tiafenacil, tiafenacil]
- Growth inhibition rate (%) ([1]; dose 25 g/ha): 33%
- Growth inhibition rate (%) ([1]; dose 50 g/ha): 40%
- Growth inhibition rate (%) ([2]; dose 25 g/ha): 23%
- Growth inhibition rate (%) 19th day ([3]; dose 50 g/ha): 23%
- Growth inhibition rate (%) 27th day ([3]; dose 50 g/ha): 20%
- Growth inhibition rate (%) 42nd day ([3]; dose 50 g/ha): 20%
- Growth inhibition rate (%) 19th day ([3]; dose 100 g/ha): 50%
- Growth inhibition rate (%) 27th day ([3]; dose 100 g/ha): 43%
- Growth inhibition rate (%) 42nd day ([3]; dose 100 g/ha): 30%
- growth inhibition effect (in words) [3]: no sufficient growth inhibition effect
- Growth inhibition rate (%) Black nightshade (27th day) ([4]; dose 25 g/ha): 58%
- Growth inhibition rate (%) Dandelion (10th day) ([5]; dose 25 g/ha): 30%
- Growth inhibition rate (%) Yellow nutsedge ([6]; dose 50 g/ha): 35%
- Growth inhibition rate (%) Common Ragweed (6th day) ([7]; dose 25 g/ha): 50%
- Growth inhibition rate (%) Common Ragweed (6th day) ([7]; dose 50 g/ha): 50%
- Growth inhibition rate (%) Kochia (10th day) ([8]; dose 25 g/ha): 30%
- Growth inhibition rate (%) Kochia (10th day) ([8]; dose 50 g/ha): 30%
- Growth inhibition rate (%) Barnyardgrass (11th day) ([9]; dose 2.5 g/ha): 30%
- Growth inhibition rate (%) Giant foxtail (7th day) ([10]; dose 2.5 g/ha): 80%
- Growth inhibition rate (%) Crabgrass (18th day) ([11]; dose 2.5 g/ha): 30%
- Growth inhibition rate (%) Red root pigweed (8th day) ([12]; dose 1 g/ha): 50%
- Growth inhibition rate (%) Kochia (14th day) ([13]; dose 1 g/ha): 13%
- Growth inhibition rate (%) Kochia (14th day) ([13]; dose 2 g/ha): 23%
- Growth inhibition rate (%) Chenopodium album L. var. centrorubrum Makino (14th day) ([14]; dose 1 g/ha): 3%
- Growth inhibition rate (%) Chenopodium album L. var. centrorubrum Makino (14th day) ([14]; dose 2 g/ha): 30%

SMILES: CCn1ncc(C(=O)c2ccc(S(C)(=O)=O)c(OCCOC)c2C)c1OC(C)OC(=O)OC (stereo not drawn) [Tolpyralate, tolpyralate]
- Growth inhibition rate (%) ([1]; dose 15 g/ha): 33%
- Growth inhibition rate (%) ([1]; dose 30 g/ha): 30%
- Growth inhibition rate (%) ([1]; dose 50 g/ha): 30%
- Growth inhibition rate (%) ([2]; dose 125 g/ha): 33%
- Growth inhibition rate (%) ([2]; dose 250 g/ha): 37%
- Growth inhibition rate (%) 19th day ([3]; dose 5 g/ha): 20%
- Growth inhibition rate (%) 27th day ([3]; dose 5 g/ha): 47%
- Growth inhibition rate (%) 42nd day ([3]; dose 5 g/ha): 23%
- Growth inhibition rate (%) 19th day ([3]; dose 10 g/ha): 17%
- Growth inhibition rate (%) 27th day ([3]; dose 10 g/ha): 37%
- Growth inhibition rate (%) 42nd day ([3]; dose 10 g/ha): 47%
- growth inhibition effect (in words) [3]: no sufficient growth inhibition effect
- Growth inhibition rate (%) Black nightshade (27th day) ([4]; dose 15 g/ha): 72%
- Growth inhibition rate (%) Black nightshade (27th day) ([4]; dose 30 g/ha): 79%
- Growth inhibition rate (%) Black nightshade (27th day) ([4]; dose 50 g/ha): 78%
- Growth inhibition rate (%) Wild oat (21st day) ([15]; dose 15 g/ha): 10%
- Growth inhibition rate (%) Wild oat (21st day) ([15]; dose 30 g/ha): 28%
- Growth inhibition rate (%) Wild oat (21st day) ([15]; dose 50 g/ha): 30%
- Growth inhibition rate (%) Dandelion (10th day) ([5]; dose 15 g/ha): 30%
- Growth inhibition rate (%) Dandelion (10th day) ([5]; dose 30 g/ha): 30%
- Growth inhibition rate (%) Dandelion (10th day) ([5]; dose 50 g/ha): 30%
- Growth inhibition rate (%) Yellow nutsedge ([6]; dose 15 g/ha): 40%
- Growth inhibition rate (%) Yellow nutsedge ([6]; dose 30 g/ha): 50%
- Growth inhibition rate (%) Common Ragweed (6th day) ([7]; dose 15 g/ha): 15%
- Growth inhibition rate (%) Common Ragweed (6th day) ([7]; dose 30 g/ha): 15%
- Growth inhibition rate (%) Common Ragweed (6th day) ([7]; dose 50 g/ha): 10%
- Growth inhibition rate (%) Kochia (10th day) ([8]; dose 15 g/ha): 15%
- Growth inhibition rate (%) Kochia (10th day) ([8]; dose 30 g/ha): 20%
- Growth inhibition rate (%) Kochia (10th day) ([8]; dose 50 g/ha): 15%
- Growth inhibition rate (%) Goosegrass (5th day) ([16]; dose 1.5 g/ha): 15%
- Growth inhibition rate (%) Goosegrass (5th day) ([16]; dose 3 g/ha): 15%
- Growth inhibition rate (%) Goosegrass (5th day) ([16]; dose 5 g/ha): 23%
- Growth inhibition rate (%) Barnyardgrass (11th day) ([9]; dose 1.5 g/ha): 45%
- Growth inhibition rate (%) Barnyardgrass (11th day) ([9]; dose 3 g/ha): 45%
- Growth inhibition rate (%) Barnyardgrass (11th day) ([9]; dose 5 g/ha): 40%
- Growth inhibition rate (%) Giant foxtail (7th day) ([10]; dose 1.5 g/ha): 10%
- Growth inhibition rate (%) Giant foxtail (7th day) ([10]; dose 3 g/ha): 30%
- Growth inhibition rate (%) Giant foxtail (7th day) ([10]; dose 5 g/ha): 40%
- Growth inhibition rate (%) Crabgrass (18th day) ([11]; dose 1.5 g/ha): 30%
- Growth inhibition rate (%) Crabgrass (18th day) ([11]; dose 3 g/ha): 40%
- Growth inhibition rate (%) Crabgrass (18th day) ([11]; dose 5 g/ha): 50%
- Growth inhibition rate (%) Red root pigweed (8th day) ([12]; dose 1.5 g/ha): 23%
- Growth inhibition rate (%) Red root pigweed (8th day) ([12]; dose 3 g/ha): 25%
- Growth inhibition rate (%) Red root pigweed (8th day) ([12]; dose 5 g/ha): 30%
- Growth inhibition rate (%) Kochia (14th day) ([13]; dose 1.5 g/ha): 10%
- Growth inhibition rate (%) Kochia (14th day) ([13]; dose 3 g/ha): 23%
- Growth inhibition rate (%) Kochia (14th day) ([13]; dose 5 g/ha): 25%
- Growth inhibition rate (%) Chenopodium album L. var. centrorubrum Makino (14th day) ([14]; dose 1.5 g/ha): 10%
- Growth inhibition rate (%) Chenopodium album L. var. centrorubrum Makino (14th day) ([14]; dose 3 g/ha): 10%
- Growth inhibition rate (%) Chenopodium album L. var. centrorubrum Makino (14th day) ([14]; dose 5 g/ha): 15%

Reference: patent publication US12096773B2, “Herbicidal composition” (ISHIHARA SANGYO KAISHA, LTD., priority 2019, dated 2024)
